From patent US12409171B2, “Pharmaceutically active pyrazolo-pyridone modulators of DCN1/2-mediated cullin neddylation” (UNIVERSITY OF KENTUCKY RESEARCH FOUNDATION, priority 2019, dated 2025)

biological target: DCN1 (Homo sapiens (Human), UniProt Q96GG9); assay: TR-FRET binding assay (biotin-DCN1 / Ac-UBE2M12-AlexaFluor488); conditions: mean ± SD (n); read-out: DCN1_TRFRET Mean EC50
Method in brief: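 Biotinylated DCN1 binding to Ac-UBE2M12-AlexaFluor488 read by TR-FRET; assay cocktail pre-incubated 1 h at room temperature before compounds added from DMSO stocks by pin transfer. IC50 is the mean of three replicates ± SD; compounds tested in triplicate or more.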

Chain of DCN1 (Q96GG9 whole entry): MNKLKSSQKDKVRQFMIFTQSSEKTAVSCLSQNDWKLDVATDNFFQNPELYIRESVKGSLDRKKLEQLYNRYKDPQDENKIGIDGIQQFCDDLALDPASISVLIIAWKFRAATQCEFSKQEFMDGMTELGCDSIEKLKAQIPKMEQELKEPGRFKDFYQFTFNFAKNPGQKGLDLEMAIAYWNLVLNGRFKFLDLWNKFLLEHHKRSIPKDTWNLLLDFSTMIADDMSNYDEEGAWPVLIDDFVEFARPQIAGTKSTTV

For `CCN1C(=O)[C@@H](NC(=O)c2cccc(-c3ccccc3)c2)[C@@H](c2ccc(F)cc2)c2c(C)nn(-c3ccccc3)c21` [RG-0013978, N-[(4S,5S)-7-ethyl-4-(4-fluorophenyl)-3-methyl-6-oxo-1-phenyl-1H,4H,5H,6H,7H-pyrazolo[3,4-b]pyridin-5-yl]-[1,1′-biphenyl]-3-carboxamide], which EC50 is on record?
Its EC50 is 1310 ± 97.3 nM.

`CCN1C(=O)[C@@H](NC(=O)c2cccc(OC)c2)[C@@H](c2ccc(F)cc2)c2c(C)nn(-c3ccccc3)c21` [RG-0013979, N-[(4S,5S)-7-ethyl-4-(4-fluorophenyl)-3-methyl-6-oxo-1-phenyl-1H,4H,5H,6H,7H-pyrazolo[3,4-b]pyridin-5-yl]-3-methoxybenzamide] was tested. Which EC50 did it give?
The EC50 was 629 ± 64.8 nM.

For `Cc1nn(-c2ccccc2)c2c1[C@H](c1ccc(F)cc1)[C@H](NC(=O)c1cccc(C(F)(F)F)c1)C(=O)N2CO` [RG-0013981, N-[(4S,5S)-4-(4-fluorophenyl)-7-(hydroxymethyl)-3-methyl-6-oxo-1-phenyl-1H,4H,5H,6H,7H-pyrazolo[3,4-b]pyridin-5-yl]-3-(trifluoromethyl)benzamide], which EC50 is on record?
Its EC50 is greater than 36500 nM.

How did the EC50 turn out when `CCN1C(=O)[C@@H](NC(=O)c2cccc(C(F)(F)F)c2)[C@@H](c2cc(C)cs2)c2c(C)nn(-c3ccccc3)c21` [RG-0013987, N-[(4S,5S)-7-ethyl-3-methyl-4-(4-methylthiophen-2-yl)-6-oxo-1-phenyl-1H,4H,5H,6H,7H-pyrazolo[3,4-b]pyridin-5-yl]-3-(trifluoromethyl)benzamide] was run?
Its EC50 is 3100 ± 559 nM.

Which EC50 does the source give for `CCN1C(=O)[C@@H](NC(=O)c2cccc(C(F)(F)F)c2)[C@@H](c2cccs2)c2c(C)nn(-c3ccccc3)c21` [RG-0013988, N-[(4S,5S)-7-ethyl-3-methyl-6-oxo-1-phenyl-4-(thiophen-2-yl)-1H,4H,5H,6H,7H-pyrazolo[3,4-b]pyridin-5-yl]-3-(trifluoromethyl)benzamide] here?
Its EC50 is 1330 ± 50.7 nM.

`CCN1C(=O)[C@@H](NC(=O)c2cccc(C(F)(F)F)c2)[C@@H](c2ccc(F)c(C(F)(F)F)c2)c2c(C)nn(-c3ccccc3)c21` [RG-0013990, N-[(4S,5S)-7-ethyl-4-[4-fluoro-3-(trifluoromethyl)phenyl]-3-methyl-6-oxo-1-phenyl-1H,4H,5H,6H,7H-pyrazolo[3,4-b]pyridin-5-yl]-3-(trifluoromethyl)benzamide] was tested. Which EC50 did it give?
The EC50 was 4810 ± 152 nM.

`CCN1C(=O)[C@@H](NC(=O)c2cccc(C(F)(F)F)c2)[C@@H](c2ccc(F)nc2)c2c(CO)nn(-c3ccccc3)c21` [RG-0013992, N-[(4S,5S)-7-ethyl-4-(6-fluoropyridin-3-yl)-3-(hydroxymethyl)-6-oxo-1-phenyl-1H,4H,5H,6H,7H-pyrazolo[3,4-b]pyridin-5-yl]-3-(trifluoromethyl)benzamide] was tested. Which EC50 did it give?
The EC50 was 157 ± 19.2 nM.

With `CCN1C(=O)[C@@H](NC(=O)c2cccc(C(F)(F)F)c2)[C@@H](c2ccc(F)c(OC)c2)c2c(C)nn(-c3ccccc3)c21` [RG-0013996, N-[(4S,5S)-7-ethyl-4-(4-fluoro-3-methoxyphenyl)-3-methyl-6-oxo-1-phenyl-1H,4H,5H,6H,7H-pyrazolo[3,4-b]pyridin-5-yl]-3-(trifluoromethyl)benzamide] as the compound, how does the EC50 read?
The EC50 was 1270 ± 47 nM.

How did the EC50 turn out when `CCN1C(=O)[C@@H](NC(=O)c2cccc(C(F)(F)F)c2)[C@@H](c2ccc(C)s2)c2c(C)nn(-c3ccccc3)c21` [RG-0014004, N-[(4S,5S)-7-ethyl-3-methyl-4-(5-methylthiophen-2-yl)-6-oxo-1-phenyl-1H,4H,5H,6H,7H-pyrazolo[3,4-b]pyridin-5-yl]-3-(trifluoromethyl)benzamide] was run?
The EC50 was 1410 ± 15.9 nM.

`CCN1C(=O)[C@@H](NC(=O)c2cccc(C(F)(F)F)c2)[C@@H](c2cncs2)c2c(C)nn(-c3ccccc3)c21` [RG-0014005, N-[(4S,5S)-7-ethyl-3-methyl-6-oxo-1-phenyl-4-(1,3-thiazol-5-yl)-1H,4H,5H,6H,7H-pyrazolo[3,4-b]pyridin-5-yl]-3-(trifluoromethyl)benzamide] was tested. Which EC50 did it give?
Its EC50 is 1920 ± 75.2 nM.

Which EC50 does the source give for `CCN1C(=O)[C@@H](NC(=O)c2cccc(C(F)(F)F)c2)[C@@H](c2ccc(F)nc2)c2c(CN)nn(-c3ccccc3)c21` [RG-0014006, N-[(4S,5S)-3-(aminomethyl)-7-ethyl-4-(6-fluoropyridin-3-yl)-6-oxo-1-phenyl-1H,4H,5H,6H,7H-pyrazolo[3,4-b]pyridin-5-yl]-3-(trifluoromethyl)benzamide] here?
The EC50 was 135 ± 7 nM.

How did the EC50 turn out when `C=CCN1C(=O)[C@@H](NC(=O)c2cccc(C(F)(F)F)c2)[C@@H](c2ccc(F)cc2)c2c(C)nn(-c3ccccc3)c21` [RG-0014007, N-[(4S,5S)-4-(4-fluorophenyl)-3-methyl-6-oxo-1-phenyl-7-(prop-2-en-1-yl)-1H,4H,5H,6H,7H-pyrazolo[3,4-b]pyridin-5-yl]-3-(trifluoromethyl)benzamide] was run?
Its EC50 is 1550 ± 157 nM.

Which EC50 does the source give for `CCN1C(=O)[C@@H](NC(=O)c2cccc(C(F)(F)F)c2)[C@@H](c2ccc(F)cc2)c2c(C)nn(-c3cccc(C)c3)c21` [RG-0014035, N-[(4S,5S)-7-ethyl-4-(4-fluorophenyl)-3-methyl-1-(3-methylphenyl)-6-oxo-1H,4H,5H,6H,7H-pyrazolo[3,4-b]pyridin-5-yl]-3-(trifluoromethyl)benzamide] here?
Its EC50 is 388 ± 38.5 nM.

Which EC50 does the source give for `CCN1C(=O)[C@@H](NC(=O)c2cccc(C(F)(F)F)c2)[C@@H](c2ccc(F)cc2)c2c(C)nn(-c3ccc(C)cc3)c21` [RG-0014036, N-[(4S,5S)-7-ethyl-4-(4-fluorophenyl)-3-methyl-1-(4-methylphenyl)-6-oxo-1H,4H,5H,6H,7H-pyrazolo[3,4-b]pyridin-5-yl]-3-(trifluoromethyl)benzamide] here?
The EC50 was 3210 ± 156 nM.

How did the EC50 turn out when `CCOC(=O)Cn1nc(C)c2c1N(CC)C(=O)[C@@H](NC(=O)c1cccc(C(F)(F)F)c1)[C@H]2c1ccc(F)cc1` [RG-0014038, ethyl 2-[(4S,5S)-7-ethyl-4-(4-fluorophenyl)-3-methyl-6-oxo-5-[3-(trifluoromethyl)benzamido]-1H,4H,5H,6H,7H-pyrazolo[3,4-b]pyridin-1-yl]acetate] was run?
The EC50 was 3530 ± 458 nM.

For `CCN1C(=O)[C@@H](NC(=O)c2cc(C)cs2)[C@@H](c2ccc(F)cc2)c2c(C)nn(-c3ccccc3)c21` [RG-0014044, N-[(4S,5S)-7-ethyl-4-(4-fluorophenyl)-3-methyl-6-oxo-1-phenyl-1H,4H,5H,6H,7H-pyrazolo[3,4-b]pyridin-5-yl]-4-methylthiophene-2-carboxamide], which EC50 is on record?
The EC50 was 785 ± 79.6 nM.

With `C=CC(=O)NCc1nn(-c2ccccc2)c2c1[C@H](c1ccc(F)cc1)[C@H](NC(=O)c1cccc(C(F)(F)F)c1)C(=O)N2CC` [RG-0014047, N-[(4S,5S)-7-ethyl-4-(4-fluorophenyl)-6-oxo-1-phenyl-3-[(prop-2-enamido)methyl]-1H,4H,5H,6H,7H-pyrazolo[3,4-b]pyridin-5-yl]-3-(trifluoromethyl)benzamide] as the compound, how does the EC50 read?
The EC50 was 95.3 ± 4.67 nM.

`CCN1C(=O)[C@@H](NC(=O)c2cccc(C(F)(F)F)c2)[C@@H](c2ccc(F)cc2)c2c(CNC(=O)CC(C)C)nn(-c3ccccc3)c21` [RG-0014052, N-[(4S,5S)-7-ethyl-4-(4-fluorophenyl)-3-[(3-methylbutanamido)methyl]-6-oxo-1-phenyl-1H,4H,5H,6H,7H-pyrazolo[3,4-b]pyridin-5-yl]-3-(trifluoromethyl)benzamide] was tested. Which EC50 did it give?
Its EC50 is 114 ± 8.67 nM.

`CCN1C(=O)[C@@H](NC(=O)c2cccc(C(F)(F)F)c2)[C@@H](c2ccc(F)cc2)c2c(CN(C)C)nn(-c3ccccc3)c21` [RG-0014053, N-[(4S,5S)-3-[(dimethylamino)methyl]-7-ethyl-4-(4-fluorophenyl)-6-oxo-1-phenyl-1H,4H,5H,6H,7H-pyrazolo[3,4-b]pyridin-5-yl]-3-(trifluoromethyl)benzamide] was tested. Which EC50 did it give?
Its EC50 is 90.7 ± 4.38 nM.

For `CCN1C(=O)[C@@H](NC(=O)c2cccc(C(F)(F)F)c2)[C@@H](c2ccc(F)cc2)c2c(CNC(=O)OC)nn(-c3ccccc3)c21` [RG-0014054, methyl N-{[(4S,5S)-7-ethyl-4-(4-fluorophenyl)-6-oxo-1-phenyl-5-[3-(trifluoromethyl)benzamido]-1H,4H,5H,6H,7H-pyrazolo[3,4-b]pyridin-3-yl]methyl}carbamate], which EC50 is on record?
Its EC50 is 114 ± 4.73 nM.

`CCN1C(=O)[C@@H](NC(=O)c2cccc(C(F)(F)F)c2)[C@@H](c2ccc(F)cc2)c2c(CNC)nn(-c3ccccc3)c21` [RG-0014056, N-[(4S,5S)-7-ethyl-4-(4-fluorophenyl)-3-[(methylamino)methyl]-6-oxo-1-phenyl-1H,4H,5H,6H,7H-pyrazolo[3,4-b]pyridin-5-yl]-3-(trifluoromethyl)benzamide] was tested. Which EC50 did it give?
The EC50 was 118 ± 9.03 nM.

Which EC50 does the source give for `CCN1C(=O)[C@@H](NC(=O)c2cccc(C(F)(F)F)c2)[C@@H](c2ccc(F)cc2)c2c(CN3CCN(C(=O)OC(C)(C)C)CC3)nn(-c3ccccc3)c21` [RG-0014059, tert-butyl 4-{[(4S,5S)-7-ethyl-4-(4-fluorophenyl)-6-oxo-1-phenyl-5-[3-(trifluoromethyl)benzamido]-1H,4H,5H,6H,7H-pyrazolo[3,4-b]pyridin-3-yl]methyl}piperazine-1-carboxylate] here?
The EC50 was 231 ± 16.5 nM.

`CCN1C(=O)[C@@H](NC(=O)c2cccc(C(F)(F)F)n2)[C@@H](c2ccc(F)cc2)c2c(C)nn(-c3ccccc3)c21` [RG-0014061, N-[(4S,5S)-7-ethyl-4-(4-fluorophenyl)-3-methyl-6-oxo-1-phenyl-1H,4H,5H,6H,7H-pyrazolo[3,4-b]pyridin-5-yl]-6-(trifluoromethyl)pyridine-2-carboxamide] was tested. Which EC50 did it give?
The EC50 was 1110 ± 130 nM.

For `CCN1C(=O)[C@@H](NC(=O)c2ccc(C)s2)[C@@H](c2ccc(F)cc2)c2c(C)nn(-c3ccccc3)c21` [RG-0014062, N-[(4S,5S)-7-ethyl-4-(4-fluorophenyl)-3-methyl-6-oxo-1-phenyl-1H,4H,5H,6H,7H-pyrazolo[3,4-b]pyridin-5-yl]-5-methylthiophene-2-carboxamide], which EC50 is on record?
Its EC50 is 2340 ± 77.2 nM.

How did the EC50 turn out when `CCN1C(=O)[C@@H](NC(=O)C(C)(C)C)[C@@H](c2ccc(F)cc2)c2c(C)nn(-c3ccccc3)c21` [RG-0014063, N-[(4S,5S)-7-ethyl-4-(4-fluorophenyl)-3-methyl-6-oxo-1-phenyl-1H,4H,5H,6H,7H-pyrazolo[3,4-b]pyridin-5-yl]-2,2-dimethylpropanamide] was run?
The EC50 was greater than 36500 nM.
